Measured values as given in patent US8404718B2, “Combinations of pyrazole kinase inhibitors” (Astex Therapeutics Limited, priority 2005, dated 2013).

Assays:
Activated CDK2/CyclinA = Activated CDK2/CyclinA (Homo sapiens, UniProt P24941); assay: Activated CDK2/CyclinA kinase inhibitory activity assay (IC50), Example 250A; format: biochemical
Procedure: Compounds of the invention were tested for kinase inhibitory activity using the following protocol.
(§1) The reaction is allowed to proceed for 2 to 4 hours before being stopped with an excess of ortho-phosphoric acid (5 μl at 2%).
(§2) γ^33P-ATP which remains unincorporated into the histone H1 is separated from phosphorylated histone H1 on a Millipore MAPH filter plate. The wells of the MAPH plate are wetted with 0.5% orthophosphoric acid, and then the results of the reaction are filtered with a Millipore vacuum filtration unit through the wells. Following filtration, the residue is washed twice with 200 μl of 0.5% orthophosphoric acid. Once the filters have dried, 20 μl of Microscint 20 scintillant is added, and then counted on a Packard Topcount for 30 seconds.

GSK3-β = biological target: T1, GSK3-β (Homo sapiens, UniProt P49841); assay: Inhibitory activity against glycogen synthase kinase-3 (Protocol A or B); format: biochemical; settings: either Protocol A or Protocol B; read-out: IC50 in the GSK3-B assays
T1 construct: purchased Upstate Discovery
Procedure: The activities of the compounds of the invention as inhibitors of GSK-3 were determined using either Protocol A or Protocol B below.
The reaction is allowed to proceed for 3 hours before being stopped with an excess of ortho-phosphoric acid (5 μl at 2%). The filtration procedure is as for Activated CDK2/CyclinA assay above.
GSK3β (human) is diluted to a 10× working stock in 50 mM Tris pH 7.5, 0.1 mM EGTA, 0.1 mM sodium vanadate, 0.1% β-mercaptoethanol, 1 mg/ml BSA.
(§3) (specific activity approx 500 cpm/pmol, concentration as required).

[1] = test system: human colon carcinoma cell line HCT 116; assay: Anti-proliferative activity, Alamar Blue assay; format: cell-based; settings: 72 hours compound incubation, read-out: IC50, inhibition of cell growth, HCT 116
Procedure: The anti-proliferative activities of the combinations of the invention, as well as the individual components of the combinations, are determined by measuring the ability of the compounds to inhibition of cell growth in a number of cell lines. Inhibition of cell growth is measured using the Alamar Blue assay (Nociari, M. M, Shalev, A., Benias, P., Russo, C. Journal of Immunological Methods 1998, 213, 157-167). The method is based on the ability of viable cells to reduce resazurin to its fluorescent product resorufin. For each proliferation assay cells are plated onto 96 well plates and allowed to recover for 16 hours prior to the addition of inhibitor compounds for a further 72 hours. At the end of the incubation period 10% (v/v) Alamar Blue is added and incubated for a further 6 hours prior to determination of fluorescent product at […]. In the case of the non-proliferating cell assay cells are maintained at confluence for 96 hour prior to the addition of inhibitor compounds for a further 72 hours. The number of viable cells is determined by Alamar Blue assay as before. All cell lines are obtained from ECACC (European Collection of cell Cultures).

CDK1/CyclinB = biological target: T2, CDK1/CyclinB (Homo sapiens, UniProt P06493); assay: CDK1/CyclinB assay; format: biochemical; settings: Example 250B protocol or selectivity protocol
T2 construct: purchased Upstate Discovery
Procedure: as §3, §1, §2

CDK2/CyclinA = biological target: T3, CDK2/CyclinA (Homo sapiens, UniProt P24941); assay: Measurement of CDK2 kinase inhibitory activity (IC50), Example 248; format: biochemical
T3 construct: purchased Upstate Biotechnology
Procedure: Compounds of the invention were tested for kinase inhibitory activity using either the following protocol or the activated CDK2/cyclin A kinase protocol described in Example 250.
1.7 μl of active CDK2/CyclinA (Upstate Biotechnology, 10 U/μl) is diluted in assay buffer (25.0 μl of 10× strength assay buffer (200 mM MOPS pH 7.2, 250 mM (3-glycerophosphate, 50 mM EDTA, 150 mM MgCl2), 11.27 μl 10 mM ATP, 2.5 μl 1M DTT, 25 μl 100 mM sodium orthovanadate, 708.53 μl H2O), and 10 μl mixed with 10 μl of histone substrate mix (60 μl bovine histone H1 (Upstate Biotechnology, 5 mg/ml), 940 μl H2O, 35 μCi γ^33P-ATP) and added to 96 well plates along with 5 μl of various dilutions of the test compound in DMSO (up to 2.5%). The reaction is allowed to proceed for 5 hours before being stopped with an excess of ortho-phosphoric acid (30 μl at 2%).
as §2, with “dried, 25” for “dried, 20”

T1 sequence (P49841 whole entry): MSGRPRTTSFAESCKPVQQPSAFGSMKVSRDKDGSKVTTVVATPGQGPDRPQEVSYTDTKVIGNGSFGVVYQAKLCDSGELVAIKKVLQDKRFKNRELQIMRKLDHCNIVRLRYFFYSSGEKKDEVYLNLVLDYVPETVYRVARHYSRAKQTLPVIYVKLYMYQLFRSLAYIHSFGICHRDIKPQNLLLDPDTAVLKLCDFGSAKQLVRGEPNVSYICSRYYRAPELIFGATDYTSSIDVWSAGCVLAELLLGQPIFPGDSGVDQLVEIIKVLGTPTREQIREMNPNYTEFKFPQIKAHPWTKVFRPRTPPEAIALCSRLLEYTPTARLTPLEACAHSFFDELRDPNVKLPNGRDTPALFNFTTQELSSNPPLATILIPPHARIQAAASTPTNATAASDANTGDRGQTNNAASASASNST
T2 sequence (P06493 whole entry): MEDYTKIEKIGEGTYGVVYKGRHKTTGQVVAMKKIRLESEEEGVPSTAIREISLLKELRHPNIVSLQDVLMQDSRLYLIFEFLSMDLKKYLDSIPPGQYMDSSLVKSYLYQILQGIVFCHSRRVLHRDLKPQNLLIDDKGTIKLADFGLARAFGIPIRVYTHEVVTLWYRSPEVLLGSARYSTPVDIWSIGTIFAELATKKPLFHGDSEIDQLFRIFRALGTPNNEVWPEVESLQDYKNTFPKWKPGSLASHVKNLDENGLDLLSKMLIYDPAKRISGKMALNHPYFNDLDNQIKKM
T2 sequence (P14635 whole entry partner): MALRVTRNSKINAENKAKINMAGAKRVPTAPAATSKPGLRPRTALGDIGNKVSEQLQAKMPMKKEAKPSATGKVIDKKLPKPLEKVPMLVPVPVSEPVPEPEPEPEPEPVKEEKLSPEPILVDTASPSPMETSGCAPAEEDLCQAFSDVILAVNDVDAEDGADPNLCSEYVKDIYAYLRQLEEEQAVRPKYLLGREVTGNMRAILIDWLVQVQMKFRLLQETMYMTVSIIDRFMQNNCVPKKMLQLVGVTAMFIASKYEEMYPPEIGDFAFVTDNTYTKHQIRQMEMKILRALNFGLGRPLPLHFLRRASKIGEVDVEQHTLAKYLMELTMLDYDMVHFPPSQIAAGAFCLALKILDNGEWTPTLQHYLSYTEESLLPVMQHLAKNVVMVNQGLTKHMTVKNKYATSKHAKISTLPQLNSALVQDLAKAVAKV

SMILES | IC50 (Activated CDK2/CyclinA) | IC50 (GSK3-β) | IC50 [1] | IC50 (CDK1/CyclinB) | IC50 (CDK2/CyclinA)
O=C(Nc1c[nH]nc1C(=O)NC1CCNCC1)c1cc(F)cc(F)c1 [Example 144] | < 20 µM | < 10 µM |  |  | 
N[C@H]1CC[C@H](NC(=O)c2n[nH]cc2NC(=O)c2c(F)cccc2F)CC1 [Example 102] | < 20 µM | < 10 µM | < 20 µM |  | 
CS(=O)(=O)N1CCC(NC(=O)c2n[nH]cc2NC(=O)c2c(F)cccc2F)CC1 [Example 131] | < 20 µM | < 10 µM | < 20 µM |  | 
CC(C)(C)C1CCC(NC(=O)c2n[nH]cc2NC(=O)c2ccc(OC(F)F)cc2)CC1 (centres unmarked) [Example 128] |  | < 10 µM |  |  | 
O=C(Nc1c[nH]nc1C(=O)NC1CCNCC1)c1ccc(N2CCOCC2)cc1Cl [Example 151] |  | < 10 µM | < 20 µM |  | 
O=C(NC1CCNCC1)c1n[nH]cc1NC(=O)c1c(F)cccc1F [Example 76] |  | < 10 µM | < 20 µM |  | 
O=C(NC1CCCCC1)c1n[nH]cc1NC(=O)c1c(F)cccc1F [Example 65] |  | < 10 µM | < 20 µM |  | 
Cc1oc(CN2CCOCC2)cc1C(=O)Nc1c[nH]nc1C(=O)NC1CCC(C(C)(C)C)CC1 (centres unmarked) [Example 138] |  | < 10 µM | < 20 µM |  | 
O=C(NC1CCN(Cc2ccccc2)CC1)c1n[nH]cc1NC(=O)c1c(F)cccc1F [Example 86] |  | < 10 µM | < 20 µM |  | 
O=C(Nc1c[nH]nc1C(=O)NC1CCNCC1)c1ccccc1 [Example 140] |  | < 10 µM | < 20 µM |  | 
NC(=O)c1n[nH]cc1-c1ccccc1 [Example 228, 4-Phenyl-1H-pyrazole-3-carboxylic acid amide] |  |  |  |  | < 750 µM
COc1cccc(F)c1C(=O)Nc1c[nH]nc1C(=O)NC1CCN(C(=O)OC(C)(C)C)CC1 [Example 119] | < 20 µM | < 10 µM | < 20 µM |  | 
O=C(Nc1c[nH]nc1C(=O)NC1CCNCC1)c1ccc(OC(F)F)cc1 [Example 145] | < 20 µM | < 10 µM |  |  | 
CN1CCC(NC(=O)c2n[nH]cc2NC(=O)c2c(F)cccc2F)CC1 [Example 53, 4-(2,6-Difluoro-benzoylamino)-1H-pyrazole-3-carboxylic acid (1-methyl-piperidin-4-yl)-amide] |  | < 10 µM | < 20 µM |  | 
CC1(C)CC(NC(=O)c2n[nH]cc2NC(=O)c2c(F)cccc2F)CC(C)(C)N1 [Example 88] |  |  |  |  | < 750 µM
CN1CCN(c2ccc(CNC(=O)c3n[nH]cc3-c3ccc(Cl)cc3Cl)cc2)CC1 [Example 226, 4-(2,4-Dichloro-phenyl)-1H-pyrazole-3-carboxylic acid 4-(4-methyl-piperazin-1-yl)-benzylamide] |  |  |  |  | < 750 µM
CN1CCC(NC(=O)c2n[nH]cc2NC(=O)c2cccc3c2OCCO3)CC1 [Example 188] | < 20 µM |  | < 20 µM | < 100 µM | 
O=C(NCc1c(Cl)cccc1Cl)c1n[nH]cc1NC(=O)c1c(F)cccc1F [Example 93] |  |  | < 20 µM |  | < 750 µM
CN1CCN(c2ccc(CNC(=O)c3n[nH]cc3-c3ccccc3)cc2)CC1 [Example 230, 4-Phenyl-1H-pyrazole-3-carboxylic acid 4-(4-methyl-piperazin-1-yl)-benzylamide] |  |  |  |  | < 750 µM
CC(C)(C)C1CCC(NC(=O)c2n[nH]cc2NC(=O)c2ccccc2)CC1 (centres unmarked) [Example 127] |  | < 10 µM |  |  | 
O=C(NCCN1CCOCC1)c1n[nH]cc1NC(=O)c1c(F)cccc1F [Example 84] |  | < 10 µM |  |  | 
COCCN1CCC(NC(=O)c2n[nH]cc2NC(=O)c2c(Cl)cccc2Cl)CC1 [Example 209] | < 20 µM |  | < 20 µM |  | 
CN1CCN([C@H]2CC[C@H](NC(=O)c3n[nH]cc3NC(=O)c3c(F)cccc3F)CC2)CC1 [Example 117] | < 20 µM |  | < 20 µM |  | 
COc1cccc(F)c1C(=O)Nc1c[nH]nc1C(=O)NC1CCNCC1 [Example 142] | < 20 µM | < 10 µM | < 20 µM |  | 

Other lines, results leading:

IC50 (Activated CDK2/CyclinA) | IC50 (GSK3-β) | IC50 [1] | IC50 (CDK1/CyclinB) | IC50 (CDK2/CyclinA) | SMILES
 | < 10 µM |  |  |  | CC(C)(C)C1CCC(NC(=O)c2n[nH]cc2NC(=O)c2cc(F)cc(F)c2)CC1 (centres unmarked) [Example 129]
 | < 10 µM |  |  |  | Cc1onc(-c2ccccc2)c1C(=O)Nc1c[nH]nc1C(=O)NC1CCNCC1 [Example 146]
< 20 µM | < 10 µM | < 20 µM |  |  | O=C(Nc1c[nH]nc1C(=O)NC1CCNCC1)c1ccc(Cl)cc1 [Example 143]
< 20 µM | < 10 µM | < 20 µM |  |  | O=C(Nc1c[nH]nc1C(=O)NC1CCNCC1)c1cc(-c2ccccc2)cs1 [Example 147]
< 20 µM | < 10 µM | < 20 µM |  |  | COc1cccc(F)c1C(=O)Nc1c[nH]nc1C(=O)NC1CCC(C(C)(C)C)CC1 (centres unmarked) [Example 123]
 |  | < 100 µM | < 100 µM |  | COc1cccc(OC)c1C(=O)Nc1c[nH]nc1C(=O)NC1CCN(C)CC1 [Example 206]
 | < 10 µM | < 20 µM |  |  | O=C(Nc1c[nH]nc1C(=O)NC1CCNCC1)c1ccc(F)cc1 [Example 141]
 |  |  |  | < 750 µM | Cc1ccc(C)n1-c1c[nH]nc1C(=O)Nc1ccc(F)cc1 [Example 235, 4-(2,5-Dimethyl-pyrrol-1-yl)-1H-pyrazole-3-carboxylic acid(4-fluoro-phenyl)-amide]
 | < 10 µM | < 20 µM |  |  | Cc1sccc1C(=O)Nc1c[nH]nc1C(=O)Nc1ccc(F)cc1 [Example 48, 4-[(2-Methyl-thiophene-3-carbonyl)-amino]-1H-pyrazole-3-carboxylic acid (4-fluoro-phenyl)-amide]
 | < 10 µM | < 100 µM |  |  | CC(=O)Nc1c[nH]nc1C(=O)Nc1ccc(F)cc1 [Example 2, 4-Acetylamino-1H-pyrazole-3-carboxylic acid (4-fluoro-phenyl)-amide]
< 20 µM | < 10 µM | < 20 µM |  |  | O=C(NC1CCNCC1)c1n[nH]cc1NC(=O)c1c(F)cccc1Cl [Example 149]
 | < 10 µM | < 20 µM |  |  | O=C(Nc1c[nH]nc1C(=O)Nc1ccc(F)cc1)c1ccccc1 [Example 26, 4-Benzoylamino-1H-pyrazole-3-carboxylic acid (4-fluoro-phenyl)-amide]
< 20 µM | < 10 µM | < 20 µM |  |  | CC(C)N1CCC(NC(=O)c2n[nH]cc2NC(=O)c2c(F)cccc2F)CC1 [Example 106]
 | < 10 µM |  |  |  | CC(C)(C)C1CCC(NC(=O)c2n[nH]cc2NC(=O)c2ccc(F)cc2)CC1 (centres unmarked) [Example 122]
 | < 10 µM | < 20 µM |  |  | CC(C)(C)C1CCC(NC(=O)c2c[nH]nc2NC(=O)c2c(F)cccc2F)CC1 (centres unmarked) [Example 77]
< 20 µM | < 10 µM | < 100 µM |  |  | CC(C)(C)C1CCC(NC(=O)c2n[nH]cc2NC(=O)c2ccc(CN3CCOCC3)o2)CC1 (centres unmarked) [Example 135]
 | < 10 µM |  |  |  | CC(C)(C)C1CCC(NC(=O)c2n[nH]cc2NC(=O)c2ccc(Cl)cc2)CC1 (centres unmarked) [Example 126]
< 20 µM |  | < 20 µM |  |  | O=C1CC[C@H](NC(=O)c2n[nH]cc2NC(=O)c2c(F)cccc2F)CN1 [Example 139]
< 20 µM | < 10 µM | < 20 µM |  |  | CC(C)(C)C1CCC(NC(=O)c2n[nH]cc2NC(=O)c2ccc(CN3CCCC3)o2)CC1 (centres unmarked) [Example 134]
